# Test results as given in patent US20240286998A1, “F[…], ANALOGUES THEREOF, AND METHODS USING SAME” (Saint Joseph's University, priority 2021, published 2024).
# pEC50: −log10 of the molar value. Where two headings read alike, the source gives them in different places.
# Key:
# [1] = In vivo intravenous pharmacokinetic study in rats; design: species or system Sprague Dawley rats; details: rat, mean; for Vd: iv, 1 mg/kg
# Protocol: For the in vivo stability study described herein, 1 mg/kg of drug was administered by intravenous injection (i.e., dose volume 2 mL/kg, vehicle 5% DMSO:95% hydroxypropyl-beta-cyclodextrin (20% w/v in water)) to three male Sprague Dawley rats (˜300 g at time of dosing). Blood samples (˜240 μL) were collected via venipuncture at various time points (5, 15, 30, 60 120 240, 480 and 1,440 min) into K2EDTA-coated tubes. The samples were spun at 10,000 rpm (9,600×G) for 2 minutes. 100 μL of the resulting plasma was then collected and stored at −80° C. until analyzed by HPLC as described above.
# Compound 3 administered intravenously (1 mg/kg); Vehicle: 5% DMSO, 95% 2-hydroxypropyl-β-cyclodextrin (HPBCD) (20% w/v in water); Plasma concentrations were quantified at multiple time points by UHPLC-MS-MS; N=3.
# C57BL/6J mice [2] = experiment: Head-Twitch Response (HTR) in mice; type: in vivo; details: Mus musculus, ip, 0.5 h
# Protocol: Male C57BL/6J mice (6-8 weeks old) were obtained from Jackson Laboratories (Bar Harbor, ME) and housed in a vivarium at the University of California San Diego, an AAALAC-approved animal facility that meets all federal and state requirements for care and treatment of laboratory animals. All animal experiments were carried out in accordance with NIH guidelines and were approved by the UCSD Institutional Animal Care and Use Committee. Mice were housed up to four per cage in a climate-controlled room on a reverse-light cycle (lights on at 1900 h, off at 0700 h). Animals were provided with ad libitum access to food and water, with the exception of during behavioral testing.
# Testing was conducted between 1000 and 1800 h. Head movements were recorded using a head-mounted magnet and a magnetometer coil as described in Halberstadt et al. (Psychopharmacology, 2013, 227(4):727-739). For the head mounted magnet, mice were anesthetized, an incision was made in the scalp, and a neodymium magnet was attached to the dorsal surface of the cranium using dental cement. Following a 2-week recovery period, behavioral experiments were conducted in a well-lit room. At least 7 days occurred between sessions to avoid any carryover effects. Test substances (i.e., dimethyltryptamine (DMT), diethyltryptamine (DET), psilocybin, 6-fluoro-diethyltryptamine (6-F-DET), compounds 3-4, 6, 9, 12-13, 22, 33, 41, 69, 88, 166, and 178) were administered intraperitoneally (IP) at a volume of 5 mL/kg. Mice were treated with vehicle (saline) or 6 doses of the test compound and then placed in a glass cylinder surrounded by a magnetometer coil and tested for 30 min. Coil voltage was filtered (1 kHz lowpass), digitized (20 kHz sampling rate) and saved to disk using a Powerlab/8SP with LabChart v 7.3.2 (ADInstruments, Colorado Springs, CO).
# The entire 30 min recordings were examined for head twitches. Established procedures based on artificial intelligence were used to identify head twitches in the recordings (Scientific Reports, 2020, 10(1):1-12). HTR counts were analyzed using one-way analyses of variance (ANOVA), followed by post hoc pairwise comparisons between individual groups and vehicle using Dunnett's multiple comparisons test. […] Median effective doses (ED50 values) and 95% confidence intervals (95% CI) were calculated using nonlinear regression (Prism 9.0.2, GraphPad Software, San Diego, CA) (Table 4 and FIGS. 1-3).
# 5-HT1A = 5-HT1A (Homo sapiens (Human), UniProt P08908); experiment: 5-HT1A Gi/o-mediated cAMP inhibition, GloSensor assay; type: cell-based
# 5-HT2C = 5-HT2C (Homo sapiens (Human), UniProt P28335); experiment: 5-HT2C Gq-mediated calcium flux functional assay; type: cell-based
# 5-HT2B = 5-HT2B (Homo sapiens (Human), UniProt P41595); experiment: 5-HT2B Gq-mediated calcium flux functional assay; type: cell-based
# human hepatocytes = experiment: Metabolic stability in cryopreserved human hepatocytes; type: in vitro ADME; details: qualitative statement
# Protocol: (§1) The metabolic stability of a test compounds were assessed by monitoring disappearance of each compound in the presence of cryopreserved hepatocytes for up to 1 hour at 37° C. Following protein precipitation and centrifugation, the samples were analyzed by UPLC-MS-MS. Test Compound stock solutions (10 mM) were diluted 1 in 100 (2 μL 10 mM DMSO stock+198 μL 50:50 acetonitrile:water) to provide a 100 μM working solution. Following addition of test compounds to buffer, samples were pre-incubated at 37° C. for 5 minutes prior to initiating the incubation by the addition of test compounds to hepatocytes (these were held at 37° C. during pre-incubation period). Aliquots were sampled at 0, 5, 10, 20, 40 and 60 min and added to ice cold acetonitrile to terminate the reaction and precipitate proteins. All samples were mixed, centrifuged, and the supernatants were analyzed by UPLC-MS-MS using a Phenomenex Luna Omega […], C18 100 Å, 50×2.1 mm column. The final incubation conditions were as follows: hepatocytes 0.5×10^6 viable cells/mL, test compound 1 μM (n=1), acetonitrile concentration<0.01% (v/v) and DMSO concentration<0.01% (v/v). The intrinsic clearance (Clint) and half-life (T1/2) values are determined from the slope of the parent depletion curve. Positive control compounds with known metabolic clearance were included (diltiazem and naloxone).
# [3] = as above; type: in vitro ADME; details: cryopreserved hepatocytes, human hepatocytes, 1 μM, 37° C.
# Protocol: as §1
# 5-HT2A = 5-HT2A (Homo sapiens (Human), UniProt P28223); experiment: 5-HT2A Gq-mediated calcium flux functional assay; type: cell-based
# Serotonin 5-HT2A (human) = Serotonin 5-HT2A (human) (Homo sapiens (Human), UniProt P28223); experiment: 5-HT2A receptor binding, [3H]-ketanserin competition in membrane fractions; details: 1 nM [3H]-ketanserin, Cheng-Prusoff, N=1-3
# C57BL/6J mice [4] = details: reported values of known 5HT2A agonists run under comparable conditions; dash = ED50 could not be estimated; cited from earlier work
# [5] = male, Sprague Dawley, plasma, intravenous 1 mg/kg, N=3
# Chain of 5-HT2C (P28335 whole entry, looked up): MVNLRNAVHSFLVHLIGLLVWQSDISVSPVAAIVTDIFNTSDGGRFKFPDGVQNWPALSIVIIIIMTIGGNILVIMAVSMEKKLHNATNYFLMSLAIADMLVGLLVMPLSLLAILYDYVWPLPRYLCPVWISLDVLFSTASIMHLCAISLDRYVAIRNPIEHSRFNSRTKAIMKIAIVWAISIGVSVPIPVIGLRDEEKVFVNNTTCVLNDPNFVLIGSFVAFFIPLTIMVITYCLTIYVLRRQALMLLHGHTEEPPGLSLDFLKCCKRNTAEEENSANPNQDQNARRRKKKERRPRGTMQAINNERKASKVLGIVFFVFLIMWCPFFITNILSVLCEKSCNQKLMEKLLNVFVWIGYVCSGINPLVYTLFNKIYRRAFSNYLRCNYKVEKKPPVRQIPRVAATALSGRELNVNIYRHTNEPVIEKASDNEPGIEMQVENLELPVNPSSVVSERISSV
# Chain of 5-HT2B (P41595 whole entry): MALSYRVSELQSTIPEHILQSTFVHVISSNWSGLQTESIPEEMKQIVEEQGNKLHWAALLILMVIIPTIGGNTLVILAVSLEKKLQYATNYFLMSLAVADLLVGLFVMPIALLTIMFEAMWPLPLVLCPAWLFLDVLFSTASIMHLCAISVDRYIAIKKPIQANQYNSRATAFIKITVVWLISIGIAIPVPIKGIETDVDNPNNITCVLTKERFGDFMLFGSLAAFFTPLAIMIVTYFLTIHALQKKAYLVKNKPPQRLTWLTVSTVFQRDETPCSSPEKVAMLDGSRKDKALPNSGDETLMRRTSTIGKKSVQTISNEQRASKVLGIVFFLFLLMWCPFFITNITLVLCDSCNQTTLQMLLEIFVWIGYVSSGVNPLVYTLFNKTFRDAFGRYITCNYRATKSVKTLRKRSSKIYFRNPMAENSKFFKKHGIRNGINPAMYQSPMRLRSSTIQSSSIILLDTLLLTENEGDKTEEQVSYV
smiles,measurement,setting,value
"CCC(C)N(C)CCc1c[nH]c2ccc(F)cc12 (centres unmarked) [Example 3, N-(2-(5-fluoro-1H-indol-3-yl)ethyl)-N-methylbutan-2-amine]",AUC,[1]; [5],0.594 µg·h/mL
same,AUC(0-inf),[1]; [5],0.597 µg·h/mL
same,C0,[1]; [5],2.49 µg/mL
same,clearance,[1]; [5],1.77 L/h/kg
same,half-life,"[1]; male, Sprague Dawley, plasma, intravenous 1 mg/kg, N=3, read-out: Half-Life (converted)",1.09 h
same,Vd,"[1]; male, Sprague Dawley, plasma, N=3, read-out: Vss",0.999 L/kg
same,Vd,"[1]; male, Sprague Dawley, plasma, N=3, read-out: Vz",3.04 L/kg
same,AUC % Extrapolation to C0,"[1]; intravenous 1 mg/kg, N=3",27.7%
same,AUC % Extrapolation to Inf,"[1]; intravenous 1 mg/kg, N=3",0.570%
same,half-life,"[1]; intravenous 1 mg/kg, N=3",1.09 h
same,ED50,C57BL/6J mice [2]; read-out: HTR ED50 μmol/kg (95% CI),6.28 µmol/kg
same,ED50,C57BL/6J mice [2]; read-out: HTR ED50 mg/kg (95% CI),1.79 mg/kg
same,pEC50,5-HT1A,5.41
same,5-HT1A-cAMP Emax (% 5-HT),"5-HT1A; cAMP inhibition, 0.2 μM isoproterenol, IA = Inactive",83.3 ± 5.7 % 5-HT
same,pEC50,5-HT2C,7.31
same,5-HT2C-Ca2+ FLUX Emax (% 5-HT),"5-HT2C; IA = Inactive, N=1-3",56.0 ± 0.9 % 5-HT
same,pEC50,5-HT2B,8.04
same,5-HT2B-Ca2+ FLUX Emax (% 5-HT),"5-HT2B; IA = Inactive, N=1-3",37.5 ± 1.5 % 5-HT
same,metabolism by human hepatocytes,human hepatocytes,rapidly metabolized
same,half-life at 1 μM,[3],0.183 h
same,hepatocyte CLint at 1 μM,[3]; read-out: Clint (μL/min/10^6 cells),132 µL/min/1e6 cells
same,pEC50,5-HT2A,8.43
same,5-HT2A-Ca2+ FLUX Emax (% 5-HT),"5-HT2A; IA = Inactive, N=1-3",94.8 ± 0.8 % 5-HT
same,5-HT2A pKi ± SEM,Serotonin 5-HT2A (human),6.23 ± 0.30
CN(C)CCc1c[nH]c2cccc(OP(=O)(O)O)c12 [Psilocybin],HTR ED50 μmol/kg (95% CI),C57BL/6J mice [4],1.40 µmol/kg
same,HTR ED50 mg/kg (95% CI),C57BL/6J mice [4],0.38 mg/kg
